In US10414811B2, “Protease-resistant lipidated GLP-1 analogs” (MEDIMMUNE LIMITED, priority 2015, dated 2019):
Read-outs that look alike come from different tables or passages of the source. Numbered stars: 1 amine (or outer) side, 2 acyl side, 3 side chain; on linkers, the order of the positions; unused ones are H or OH. Square brackets hold non-standard residues; d marks the D form. Side chains are listed from the residue outwards. Peptide text beside a SMILES is read from it. * marks the point of attachment. C18 diacid = O=C(O)CCCCCCCCCCCCCCCCC(=O)*; γGlu = O=C(O)[C@H](CCC(=O)[*:2])N[*:1]; Palmitoyl = CCCCCCCCCCCCCCCC(=O)*; αMeF = C[C@](N)(Cc1ccccc1)C(=O)O; αMeK = C[C@](N)(CCCCN)C(=O)O; αMeS = C[C@](N)(CO)C(=O)O; AEEA = NCCOCCOCC(=O)O; Aib = CC(C)(N)C(=O)O

Experiments:
GLP-1R (INS1e assay) = biological target: T1, GLP-1R (INS1e assay) (Rattus norvegicus, UniProt P32301); assay: INS1e assay, cAMP activity at GLP-1R; type: cell-based; conditions: mono-lipidated peptides
T1 construct: endogenous in cells; host or cells: INS-1E cells
T1 sequence (P32301 22-463): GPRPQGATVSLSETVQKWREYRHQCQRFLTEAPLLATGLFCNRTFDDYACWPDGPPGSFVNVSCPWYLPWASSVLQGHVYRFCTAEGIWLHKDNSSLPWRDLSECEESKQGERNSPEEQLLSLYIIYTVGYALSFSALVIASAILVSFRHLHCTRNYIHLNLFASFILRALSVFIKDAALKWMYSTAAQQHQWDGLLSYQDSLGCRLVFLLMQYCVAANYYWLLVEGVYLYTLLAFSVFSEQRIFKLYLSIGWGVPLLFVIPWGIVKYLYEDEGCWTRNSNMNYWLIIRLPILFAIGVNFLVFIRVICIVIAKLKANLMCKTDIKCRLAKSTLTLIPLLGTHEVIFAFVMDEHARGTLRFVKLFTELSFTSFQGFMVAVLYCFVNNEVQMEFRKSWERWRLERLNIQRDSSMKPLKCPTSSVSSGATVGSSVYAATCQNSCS
Procedure, shortened: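 It pairs cAMP-d2 acceptor with anti-cAMP cryptate donor, both prepared 1/20 in conjugate/lysis buffer, applied as a two-step protocol.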

[1] = biological target: T2, human glucose-dependent insulinotropic peptide receptor (GIPR) (Homo sapiens, UniProt P48546); assay: cAMP assay, human GIPR cells; type: cell-based; conditions: cAMP assay
T2 construct: expressed in transfected cells
T2 sequence (P48546 22-466): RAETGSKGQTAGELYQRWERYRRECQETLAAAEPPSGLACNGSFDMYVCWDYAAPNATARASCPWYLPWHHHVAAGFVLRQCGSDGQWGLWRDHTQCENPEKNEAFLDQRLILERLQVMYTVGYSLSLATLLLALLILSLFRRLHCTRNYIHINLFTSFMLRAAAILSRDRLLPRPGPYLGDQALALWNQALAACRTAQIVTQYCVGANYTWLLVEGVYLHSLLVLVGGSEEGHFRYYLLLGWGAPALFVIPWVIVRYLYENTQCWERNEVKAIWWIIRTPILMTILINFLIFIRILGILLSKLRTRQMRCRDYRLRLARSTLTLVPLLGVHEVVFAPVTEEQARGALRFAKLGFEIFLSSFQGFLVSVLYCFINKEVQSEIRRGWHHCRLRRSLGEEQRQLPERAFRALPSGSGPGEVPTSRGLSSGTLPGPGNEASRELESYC
Procedure, shortened: (§1)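 Peptide-stimulated cAMP measured by two-step HTRF after a 30 min room-temperature incubation with receptor-expressing cells (hGLP-1R, hGIPR at 1×10^5 cells/ml; hGCGR at 2×10^5 cells/ml). Duplicate dilutions; EC50 from 4-parameter logistic fit of % Delta F.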

Neprilysin = biological target: T3, Neprilysin (Homo sapiens, UniProt P08473); assay: Proteolytic resistance to neprilysin (% remaining peptide, RP-HPLC AUC); type: in vitro ADME; conditions: t = 0; 37° C., pH 8.3
T3 construct: purchased R&D Systems 1182-ZNC-010
Description: Ratio enzyme (units):peptide (μmoles)˜1:33. […] Ratio enzyme (units):peptide (μmoles)˜1:2.5.
15 μL aliquots (˜15 μg initial peptide) of the peptide-enzyme mixture were periodically withdrawn (t=0, 30 mins, 1 hr, 2 hr, 4 hr, 8 hr, 24 hr) and quenched immediately by addition to an equal volume (15 μL) of 5% TFA (v/v) in 1:1 water/acetonitrile to arrest proteolytic activity. 20 μL aliquots (˜10 μg initial peptide) were analyzed by LC/MS and/or analytical RP-HPLC as follows: LC/MS method: Agilent Polaris C8-A column (4.6×100 mm, 3 micron) eluted with a linear binary gradient of 10-90% MeCN (0.1% TFA v/v) in water (0.1% TFA v/v) over 30 mins at 1.5 mL min-1 at ambient temperature with detection by both UV absorption at 210 nm and ionization using a Waters 3100 mass detector (ESI+ mode). Peptide fragments deriving from enzymatic hydrolysis were identified by molecular weight, allowing location of the site of cleavage. Analytical RP-HPLC method: Agilent Polaris C8-A column (4.6×100 mm, 3 micron) eluted with a linear binary gradient of 10-90% MeCN (0.1% TFA v/v) in water (0.1% TFA v/v) over either 10 or 15 mins at 1.5 mL min^−1 at 40° C. with detection by UV absorption at 210 nm. Manual integration (AUC) allowed estimation of remaining intact peptide over the time course of the experiment.
25 μL aliquots (˜6 μg initial peptide) were analyzed by LC/MS and/or analytical RP-HPLC as follows: LC/MS method: Agilent Polaris C8-A column (4.6×100 mm, 3 micron) eluted with a linear binary gradient of 10-90% MeCN (0.1% TFA v/v) in water (0.1% TFA v/v) over 30 mins at 1.5 mL min^−1 at ambient temperature with detection by both UV absorption at 210 nm and ionization using a Waters 3100 mass detector (ESP mode). Peptide fragments deriving from enzymatic hydrolysis were identified by molecular weight, allowing location of the site of cleavage. Analytical RP-HPLC method: Agilent Polaris C8-A column (4.6×100 mm, 3 micron) eluted with a linear binary gradient of 10-90% MeCN (0.1% TFA v/v) in water (0.1% TFA v/v) over either 10 or 15 mins at 1.5 mL min^−1 at 40° C. with detection by UV absorption at 210 nm. Manual integration (AUC) allowed estimation of remaining intact peptide over the time course of the experiment.

[2] = biological target: T4, human glucagon receptor (GCGR) (Homo sapiens, UniProt P47871); assay: cAMP assay, human GCGR cells; type: cell-based; conditions: cAMP assay
T4 construct: expressed in transfected cells
Procedure, shortened: as §1

[3] = biological target: T5, human GLP-1 receptor (GLP-1R) (Homo sapiens, UniProt P43220); assay: cAMP assay, human GLP-1R cells; type: cell-based
T5 construct: expressed in transfected cells
Procedure, shortened: as §1

[4] = mean of n1 and n2, read-out: INS1e assay EC50 Mean pM GLP-1R
[5] = replicate n1, read-out: INS1e assay EC50 GLP-1R n1
[6] = replicate n2, read-out: INS1e assay EC50 GLP-1R n2
[7] = first determination (n1), read-out: Primary assay EC50 GIP-R (n1)
[8] = second determination (n2), read-out: Primary assay EC50 GIP-R (n2)
[9] = first determination (n1), read-out: Primary assay EC50 Gluc-R (n1)
[10] = second determination (n2), read-out: Primary assay EC50 Gluc-R (n2)
[11] = cAMP assay, first determination (n1), read-out: Primary assay EC50 GLP-1R n1
[12] = cAMP assay, second determination (n2), read-out: Primary assay EC50 GLP-1R n2
[13] = mean of n1 and n2, read-out: Mean pM GLP-1R

T5 sequence (P43220 24-463): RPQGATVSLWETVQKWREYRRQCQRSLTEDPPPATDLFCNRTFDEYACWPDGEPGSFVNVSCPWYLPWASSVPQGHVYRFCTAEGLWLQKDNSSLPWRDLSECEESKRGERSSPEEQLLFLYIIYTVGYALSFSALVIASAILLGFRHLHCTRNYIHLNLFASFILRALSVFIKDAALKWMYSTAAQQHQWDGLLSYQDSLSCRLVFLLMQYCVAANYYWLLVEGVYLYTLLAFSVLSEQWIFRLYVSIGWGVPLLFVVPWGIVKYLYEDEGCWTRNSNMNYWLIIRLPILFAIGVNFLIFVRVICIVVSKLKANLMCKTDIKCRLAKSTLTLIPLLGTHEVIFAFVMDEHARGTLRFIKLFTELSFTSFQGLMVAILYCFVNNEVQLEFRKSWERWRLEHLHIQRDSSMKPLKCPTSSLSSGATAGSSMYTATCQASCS
T4 sequence (P47871 26-477): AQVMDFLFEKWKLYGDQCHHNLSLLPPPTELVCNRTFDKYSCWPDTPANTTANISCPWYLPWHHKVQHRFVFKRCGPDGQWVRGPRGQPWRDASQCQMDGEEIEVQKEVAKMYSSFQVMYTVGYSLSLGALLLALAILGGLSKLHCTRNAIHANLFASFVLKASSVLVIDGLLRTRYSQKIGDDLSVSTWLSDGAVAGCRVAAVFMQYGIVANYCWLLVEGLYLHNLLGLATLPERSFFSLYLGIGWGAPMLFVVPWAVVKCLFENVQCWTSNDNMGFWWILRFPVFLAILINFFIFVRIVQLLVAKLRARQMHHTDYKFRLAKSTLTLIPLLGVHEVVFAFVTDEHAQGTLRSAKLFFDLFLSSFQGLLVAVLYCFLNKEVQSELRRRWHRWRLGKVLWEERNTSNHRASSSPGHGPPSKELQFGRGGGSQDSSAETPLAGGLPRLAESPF
T3 sequence (P08473 whole entry): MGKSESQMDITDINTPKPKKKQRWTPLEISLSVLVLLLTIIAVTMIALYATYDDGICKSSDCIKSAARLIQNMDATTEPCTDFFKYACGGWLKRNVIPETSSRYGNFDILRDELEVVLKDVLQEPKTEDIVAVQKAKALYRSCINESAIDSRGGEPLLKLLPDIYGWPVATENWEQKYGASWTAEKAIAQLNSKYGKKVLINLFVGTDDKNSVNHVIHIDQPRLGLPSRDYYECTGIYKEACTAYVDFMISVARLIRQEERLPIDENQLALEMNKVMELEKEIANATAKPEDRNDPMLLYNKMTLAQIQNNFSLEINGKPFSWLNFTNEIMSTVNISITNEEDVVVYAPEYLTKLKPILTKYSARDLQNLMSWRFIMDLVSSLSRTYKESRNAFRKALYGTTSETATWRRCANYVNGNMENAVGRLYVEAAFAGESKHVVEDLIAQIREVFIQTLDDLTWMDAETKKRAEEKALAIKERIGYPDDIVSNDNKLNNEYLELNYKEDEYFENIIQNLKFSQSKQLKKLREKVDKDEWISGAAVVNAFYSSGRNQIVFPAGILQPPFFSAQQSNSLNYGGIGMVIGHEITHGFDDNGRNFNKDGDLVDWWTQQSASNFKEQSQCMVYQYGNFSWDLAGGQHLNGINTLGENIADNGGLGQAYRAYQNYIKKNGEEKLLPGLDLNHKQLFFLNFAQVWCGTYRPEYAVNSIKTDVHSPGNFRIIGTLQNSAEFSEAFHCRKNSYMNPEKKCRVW

| EC50 (GLP-1R (INS1e assay); [4]) [pM] | EC50 (GLP-1R (INS1e assay); [5]) [pM] | EC50 (GLP-1R (INS1e assay); [6]) [pM] | EC50 [1, 7] [nM] | EC50 [1, 8] [nM] | Percentage remaining peptide (AUC at specified time-point by RP-HPLC) upon incubation with neprilysin, t = 0 (Neprilysin) [%] | EC50 [2, 9] [nM] | EC50 [2, 10] [nM] | Compound | EC50 ([1]; Primary assay EC50 GIP-R (n1), first determination (n1)) [nM] | EC50 ([1]; read-out: Primary assay EC50 GIP-R (n2), second determination (n2)) [nM] | EC50 ([2]; Primary assay EC50 Gluc-R (n1), first determination (n1)) [nM] | EC50 ([2]; read-out: Primary assay EC50 Gluc-R (n2), second determination (n2)) [nM] | EC50 [3, 11] [pM] | EC50 [3, 12] [pM] | EC50 [3, 13] [pM] |
| --- | --- | --- | --- | --- | --- | --- | --- | --- | --- | --- | --- | --- | --- | --- | --- |
| 6 | 5.1 | 7.87 | ≥ 31 | ≥ 31 | 100 | ≥ 31 | ≥ 31 | CC[C@H](C)[C@H](NC(=O)[C@](C)(Cc1ccccc1)NC(=O)[C@H](CCC(=O)O)NC(=O)[C@](C)(CCCCN)NC(=O)[C@H](C)NC(=O)[C@H](C)NC(=O)[C@H](CCC(=O)O)NC(=O)CNC(=O)[C@H](CCC(=O)O)NC(=O)[C@H](CC(C)C)NC(=O)[C@](C)(Cc1ccccc1)NC(=O)[C@H](CO)NC(=O)[C@](C)(CO)NC(=O)[C@@H](NC(=O)[C@H](CC(=O)O)NC(=O)[C@H](CO)NC(=O)[C@@H](NC(=O)[C@](C)(Cc1ccccc1)NC(=O)[C@H](CO)NC(=O)CNC(=O)[C@H](CCC(=O)O)NC(=O)C(C)(C)NC(=O)[C@@H](N)Cc1c[nH]cn1)[C@@H](C)O)C(C)C)C(=O)N[C@@H](C)C(=O)N[C@@](C)(Cc1ccccc1)C(=O)N[C@H](C(=O)N[C@H](C(=O)N[C@@](C)(CCCCN)C(=O)NCC(=O)NCC(N)=O)C(C)C)C(C)C [compound 17] |  |  |  |  |  |  |  |
|  |  |  |  |  | 100 |  |  | CCCCCCCCCCCCCCCC(=O)NCCCC[C@H](NC(=O)CNC(=O)CNC(=O)[C@](C)(CCCCN)NC(=O)[C@@H](NC(=O)[C@@H](NC(=O)[C@](C)(Cc1ccccc1)NC(=O)[C@H](C)NC(=O)[C@@H](NC(=O)[C@](C)(Cc1ccccc1)NC(=O)[C@H](CCC(=O)O)NC(=O)[C@](C)(CCCCN)NC(=O)[C@H](C)NC(=O)[C@H](C)NC(=O)[C@H](CCC(N)=O)NC(=O)CNC(=O)[C@H](CCC(=O)O)NC(=O)[C@H](CC(C)C)NC(=O)[C@](C)(Cc1ccccc1)NC(=O)[C@H](CO)NC(=O)[C@H](CO)NC(=O)[C@@H](NC(=O)[C@H](CC(=O)O)NC(=O)[C@H](CO)NC(=O)[C@@H](NC(=O)[C@](C)(Cc1ccccc1)NC(=O)[C@H](CO)NC(=O)CNC(=O)[C@H](CCC(=O)O)NC(=O)C(C)(C)NC(=O)[C@@H](N)Cc1c[nH]cn1)[C@@H](C)O)C(C)C)[C@@H](C)CC)C(C)C)C(C)C)C(N)=O [compound 489] (H-H[Aib]EGS[αMeF]TSDVSS[αMeF]LEGQAA[αMeK]E[αMeF]IA[αMeF]VV[αMeK]GGK(Palmitoyl)-NH2) |  |  |  |  |  |  |  |
| 3160 | 2570 | 3740 | ≥ 25.1 | ≥ 25.1 |  | ≥ 25.1 | ≥ 25.1 | CC[C@H](C)[C@H](NC(=O)[C@H](Cc1ccccc1)NC(=O)[C@H](CCC(=O)O)NC(=O)[C@H](CCCCN)NC(=O)[C@H](C)NC(=O)[C@H](C)NC(=O)[C@H](CCC(=O)O)NC(=O)CNC(=O)[C@H](CCC(=O)O)NC(=O)[C@H](CC(C)C)NC(=O)[C@](C)(Cc1ccccc1)NC(=O)[C@H](CO)NC(=O)[C@](C)(CO)NC(=O)[C@@H](NC(=O)[C@H](CC(=O)O)NC(=O)[C@H](CO)NC(=O)[C@@H](NC(=O)[C@](C)(Cc1ccccc1)NC(=O)[C@H](CO)NC(=O)CNC(=O)[C@H](CCC(=O)O)NC(=O)C(C)(C)NC(=O)[C@@H](N)Cc1c[nH]cn1)[C@@H](C)O)C(C)C)C(=O)N[C@@H](CCCCNC(=O)COCCOCCNC(=O)COCCOCCNC(=O)CC[C@H](NC(=O)CCCCCCCCCCCCCCCCC(=O)O)C(=O)O)C(=O)N[C@@H](Cc1c[nH]c2ccccc12)C(=O)N[C@H](C(=O)N[C@H](C(=O)N[C@@H](CCC(=O)O)C(=O)NCC(=O)NCC(N)=O)C(C)C)C(C)C [compound 65] (H-H[Aib]EGS[αMeF]TSDV[αMeS]S[αMeF]LEGEAAKEFIK([AEEA-AEEA-γGlu-C18 diacid])WVVEGG-NH2) |  |  |  |  | 19.7 | 14 | 16.9 |

| Compound | EC50 (GLP-1R (INS1e assay); [4]) [pM] | EC50 (GLP-1R (INS1e assay); [5]) [pM] | EC50 (GLP-1R (INS1e assay); [6]) [pM] | EC50 [1, 7] [nM] | EC50 [1, 8] [nM] | Percentage remaining peptide (AUC at specified time-point by RP-HPLC) upon incubation with neprilysin, t = 0 (Neprilysin) [%] | EC50 [2, 9] [nM] | EC50 [2, 10] [nM] | EC50 ([1]; Primary assay EC50 GIP-R (n1), first determination (n1)) [nM] | EC50 ([1]; read-out: Primary assay EC50 GIP-R (n2), second determination (n2)) [nM] | EC50 ([2]; Primary assay EC50 Gluc-R (n1), first determination (n1)) [nM] | EC50 ([2]; read-out: Primary assay EC50 Gluc-R (n2), second determination (n2)) [nM] | EC50 [3, 11] [pM] | EC50 [3, 12] [pM] | EC50 [3, 13] [pM] |
| --- | --- | --- | --- | --- | --- | --- | --- | --- | --- | --- | --- | --- | --- | --- | --- |
| CC[C@H](C)[C@H](NC(=O)[C@](C)(Cc1ccccc1)NC(=O)[C@H](CCC(=O)O)NC(=O)[C@H](CCCCNC(=O)CCCCCNC(=O)CCCCCNC(=O)CCCCCCCCCCCOc1ccc(C(=O)O)cc1)NC(=O)[C@H](C)NC(=O)[C@H](C)NC(=O)[C@H](CCC(=O)O)NC(=O)CNC(=O)[C@H](CCC(=O)O)NC(=O)[C@H](CC(C)C)NC(=O)[C@](C)(Cc1ccccc1)NC(=O)[C@H](CO)NC(=O)[C@](C)(CO)NC(=O)[C@@H](NC(=O)[C@H](CC(=O)O)NC(=O)[C@H](CO)NC(=O)[C@@H](NC(=O)[C@](C)(Cc1ccccc1)NC(=O)[C@H](CO)NC(=O)CNC(=O)[C@H](CCC(=O)O)NC(=O)C(C)(C)NC(=O)[C@@H](N)Cc1c[nH]cn1)[C@@H](C)O)C(C)C)C(=O)N[C@@H](C)C(=O)N[C@@](C)(Cc1ccccc1)C(=O)N[C@H](C(=O)N[C@H](C(=O)N[C@@](C)(CCCCN)C(=O)NCC(=O)NCC(N)=O)C(C)C)C(C)C [compound 141] | 41 | 44.7 | 36.7 |  |  |  |  |  | ≥ 27 | ≥ 27 | ≥ 27 | ≥ 27 | 8.7 | 5 | 6.9 |
